Assays:
Assay in all cases: relative viability (nuclei count vs DMSO), 5 days (fraction); higher = more cells survive
CX-5461 = compound: Cc1cnc(CNC(=O)c2c(=O)c3ccc(N4CCCN(C)CC4)nc3n3c2sc2ccccc23)cn1 [CX-5461]
How it was run: (§1)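 Lung cancer cell lines in 1536-well plates were exposed by pinning to five library-drug doses (not always all listed) √10 apart, following an overnight hold at 37 °C. MetaXpress counted Hoechst-stained nuclei from 4× images taken after 5 days without medium change. Viability is the median ratio of treated-well to vehicle-well nuclei across plates. Plates required control CV below 25% and at least one doubling.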

IMD-0354 = compound: O=C(Nc1cc(C(F)(F)F)cc(C(F)(F)F)c1)c1cc(Cl)ccc1O [IMD-0354]
How it was run: as §1

IMD-0354 + Bortezomib = compound: O=C(Nc1cc(C(F)(F)F)cc(C(F)(F)F)c1)c1cc(Cl)ccc1O [IMD-0354] + CC(C)C[C@H](NC(=O)[C@H](Cc1ccccc1)NC(=O)c1cnccn1)B(O)O [Bortezomib] (partner 0.002 µM)
How it was run: (§2)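 For relative viability, nuclei counts in treated wells were divided by those in vehicle wells. Lung cancer cell lines had been pin-tool dosed in 1536-well plates the day after seeding and cultured for 5 days, then fixed and stained in one step (final 0.05% Triton X-100, 1% formaldehyde, 1 ug/ml Hoechst) and imaged at 4×. Doses were one drug alone or a fixed anchor-drug dose plus five library-drug doses (not always all listed) in √10 steps, and values are duplicate-plate medians.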

CX-5461 + Alpelisib = compound: Cc1cnc(CNC(=O)c2c(=O)c3ccc(N4CCCN(C)CC4)nc3n3c2sc2ccccc23)cn1 [CX-5461] + Cc1nc(NC(=O)N2CCC[C@H]2C(N)=O)sc1-c1ccnc(C(C)(C)C(F)(F)F)c1 [Alpelisib] (partner 2 µM)
How it was run: as §2

Cell Line	relative viability (CX-5461; 0.01 µM)	relative viability (CX-5461; 0.03162 µM)	relative viability (CX-5461; 0.1 µM)	relative viability (CX-5461; 0.3162 µM)	relative viability (CX-5461; 1 µM)	relative viability (IMD-0354; 0.04 µM)	relative viability (IMD-0354; 0.1265 µM)	relative viability (IMD-0354; 0.4 µM)	relative viability (IMD-0354; 1.265 µM)	relative viability (IMD-0354; 4 µM)	relative viability (IMD-0354 + Bortezomib; first compound 0.04 µM)	relative viability (IMD-0354 + Bortezomib; first compound 0.1265 µM)	relative viability (IMD-0354 + Bortezomib; first compound 0.4 µM)	relative viability (IMD-0354 + Bortezomib; first compound 1.265 µM)	relative viability (IMD-0354 + Bortezomib; first compound 4 µM)	relative viability (CX-5461 + Alpelisib; first compound 0.01 µM)	relative viability (CX-5461 + Alpelisib; first compound 0.03162 µM)	relative viability (CX-5461 + Alpelisib; first compound 0.1 µM)	relative viability (CX-5461 + Alpelisib; first compound 0.3162 µM)	relative viability (CX-5461 + Alpelisib; first compound 1 µM)
NCI-H1703	0.955	1.06	0.91	1.09	0.569	1.11	1.02	0.507	0.282	0.14	0.234	0.3	0.352	0.168	0.102	0.314	0.419	0.28	0.332	0.267
Calu-6	1.08	1.07	1.03	0.987	0.385	0.947	0.913	0.648	0.181	0.125	1.1	1.1	0.673	0.167	0.124	0.984	1.15	0.916	1.07	0.304
EBC-1	1.01	1.05	1.08	0.907	0.782	0.914	0.971	0.585	0.304	0.205	0.54	0.59	0.471	0.184	0.195	0.899	0.943	0.75	0.775	0.425
A-427	1.06	1.1	1.06	–	0.748	1.26	1.01	0.434	0.153	0.134	1.14	1.07	0.543	0.369	0.109	1.08	1.16	1.17	–	1.06
NCI-H2347	1.02	1.04	1.04	0.937	0.908	1.1	1.02	0.738	0.511	0.4	0.741	1.02	0.748	0.606	0.533	1.11	1.04	1.07	0.834	0.994
NCI-H1355	1.03	1.06	0.96	0.521	0.671	1.12	0.946	0.716	0.368	0.221	1.42	1.24	0.833	0.224	0.256	0.867	0.82	0.928	0.758	0.878
PC-3 [JPC-3]	1.03	1.05	1.11	1.01	0.974	1.06	1.03	0.829	0.341	0.306	0.928	0.912	0.534	0.636	0.312	1.06	1.08	1.02	1.07	0.932
NCI-H2228	1.03	1.01	0.948	0.855	0.205	1.07	0.888	0.721	0.266	0.294	0.946	0.848	0.653	0.362	0.258	0.709	0.884	0.504	0.591	0.234
HOP-62	1.02	1.05	1.08	0.893	0.899	1.03	1.08	0.639	0.38	0.13	0.954	0.836	0.661	0.227	0.0871	1.12	1.09	1	1.35	1.05
HARA	1.01	1.03	0.957	0.728	0.713	1.17	0.88	0.537	0.154	0.205	0.948	1.13	0.543	0.122	0.213	0.926	0.84	0.865	0.73	0.799
NCI-H838	0.983	1	0.992	0.78	0.806	0.977	0.954	0.565	0.432	0.27	0.858	0.744	0.425	0.333	0.254	1	1.05	1.06	0.709	0.896
NCI-H1755	1.09	1.03	1.01	1.01	0.901	0.989	1.02	0.76	0.454	0.26	1.16	1.07	0.454	0.358	0.177	0.899	1.01	0.929	0.973	0.919
HCC-78	1.01	0.879	0.941	0.907	0.902	0.988	0.989	0.579	0.586	0.487	0.419	0.438	0.443	0.561	0.382	0.338	0.328	0.348	0.263	0.334
IA-LM	0.987	0.933	1	1.03	0.561	0.791	0.875	0.529	0.389	0.128	0.866	0.977	0.76	0.102	0.121	0.873	0.715	0.593	0.837	0.316
NCI-H322M	0.923	0.987	1.03	0.491	0.731	0.992	1.09	0.805	0.406	0.331	1.28	1.35	1.12	1.43	0.264	0.813	0.938	0.846	–	0.807
NCI-H3122	0.977	1.02	0.965	1.01	0.831	1.12	1.06	0.723	0.313	0.151	0.975	1.06	0.927	0.231	0.172	0.836	0.951	0.762	0.773	0.677

Cell Line	relative viability (CX-5461; 0.01 µM)	relative viability (CX-5461; 0.03162 µM)	relative viability (CX-5461; 0.1 µM)	relative viability (CX-5461; 0.3162 µM)	relative viability (CX-5461; 1 µM)	relative viability (IMD-0354; 0.04 µM)	relative viability (IMD-0354; 0.1265 µM)	relative viability (IMD-0354; 0.4 µM)	relative viability (IMD-0354; 1.265 µM)	relative viability (IMD-0354; 4 µM)	relative viability (IMD-0354 + Bortezomib; first compound 0.04 µM)	relative viability (IMD-0354 + Bortezomib; first compound 0.1265 µM)	relative viability (IMD-0354 + Bortezomib; first compound 0.4 µM)	relative viability (IMD-0354 + Bortezomib; first compound 1.265 µM)	relative viability (IMD-0354 + Bortezomib; first compound 4 µM)	relative viability (CX-5461 + Alpelisib; first compound 0.01 µM)	relative viability (CX-5461 + Alpelisib; first compound 0.03162 µM)	relative viability (CX-5461 + Alpelisib; first compound 0.1 µM)	relative viability (CX-5461 + Alpelisib; first compound 0.3162 µM)	relative viability (CX-5461 + Alpelisib; first compound 1 µM)
SK-LU-1	1.08	1.07	1.04	1.07	0.736	1.16	0.97	0.581	0.488	0.277	1.17	1.1	0.645	0.418	0.304	1.08	1.35	0.724	0.945	0.332
COR-L23	1.03	1.07	0.758	0.973	0.583	0.922	1	0.422	0.13	0.14	0.932	0.823	0.372	0.114	0.249	0.81	0.921	0.649	0.725	0.342
NCI-H2087	1.26	1.16	1.02	1.01	0.717	1.02	1	0.382	0.11	0.152	1.06	1	0.272	0.145	0.151	1.02	1.03	1.07	1.34	0.583
LC-2-ad	0.981	1.02	0.955	0.978	0.749	0.948	0.976	0.579	0.193	0.17	1.02	0.991	0.385	0.129	0.119	0.885	0.9	0.805	0.981	0.561
NCI-H1915	1.06	1.13	0.996	0.79	0.899	0.824	1.02	0.675	0.316	0.165	0.833	1	0.396	0.738	0.183	1.07	1.12	1.09	1.04	1.03
NCI-H2023	1	0.903	–	0.648	0.0929	1.11	0.986	0.573	0.128	0.0998	1.02	0.97	0.843	0.114	0.081	0.646	0.606	–	0.57	0.0938
COR-L 105	0.933	0.894	0.82	0.607	0.508	1.05	0.832	0.738	0.463	0.293	0.757	0.663	0.76	0.239	0.274	1.14	0.942	1.26	0.851	0.414
RERF-LC-KJ	0.96	1.05	0.943	0.946	0.879	1.09	0.992	0.635	0.384	0.234	1.15	1.17	0.875	0.489	0.254	0.832	0.951	0.933	0.754	0.773
LXF-289	0.988	1.01	1.06	0.87	0.745	1.02	1.05	0.86	0.337	0.207	1.03	0.833	0.757	0.291	0.131	1.03	1.07	1.06	0.916	1.02
PC-14	1.08	1.04	0.956	1.01	0.599	1.18	1.05	0.52	0.317	0.129	1.12	0.802	0.354	0.443	0.114	0.947	1.23	1.05	0.933	0.883
NCI-H650	0.919	1.02	0.788	0.879	0.768	1.13	0.954	0.594	0.555	0.214	0.413	0.748	0.606	0.49	0.355	1.1	1.16	1.18	1.16	0.977
NCI-H1666	0.985	0.992	0.949	0.904	0.808	0.954	0.922	0.82	0.611	0.523	0.667	0.804	0.641	0.257	0.169	1.01	0.983	–	0.924	0.416
NCI-H2085	1.07	1.01	0.992	1.02	0.869	1.06	0.975	0.775	0.449	0.415	1.03	1.09	0.757	0.491	0.386	0.965	0.935	0.96	1.02	0.853
NCI-H1734	1.02	1.05	1	0.694	0.579	1.09	0.969	0.731	0.306	0.142	1.22	1.17	0.385	0.211	0.259	0.772	0.789	0.665	0.559	0.615
NCI-H2126	1	1.06	1.03	0.991	0.972	1.03	0.981	0.848	0.484	0.387	1.17	1.12	0.89	0.744	0.425	0.794	0.784	0.717	0.78	0.772
EMC-BAC-2	0.962	0.909	0.769	0.818	0.488	1.02	0.962	0.675	0.425	0.383	1.17	1.03	0.553	0.634	0.217	0.752	0.833	0.782	0.698	0.717
